ChEMBL document CHEMBL1201862, “PubChem BioAssay data set” (2004)
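Method: 48-hour compound exposure of cells in 96-well plates, five concentrations, linear interpolation of endpoints. Abbreviation: GI50, concentration required for 50% inhibition of growth.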 Calls of active or inactive are those of the source. Rule as the data show it: active = GI50 up to about 1.1 µM and inactive = higher. *1 amine or outer side, *2 acyl side, *3 side chain or, on linkers, in order; H or OH if unused. Where a SMILES comes first, the peptide text is derived from it. [ ]: non-standard residue; d: D form. The star is where a group is joined. ξ: configuration not given here. X43 = CCC(=O)CC(O)CC(C)CC(N[*:1])C(=O)[*:2]; ξLeu(3ξ-OH) = CC(C)C(O)C(N)C(=O)O; ξPro(4ξ-Me) = CC1CNC(C(=O)O)C1; X42 = CCC(C)/C=C/C(=O)*; Aib = CC(C)(N)C(=O)O; X44 = CC(CN(C)C)N*; βAla = NCCC(=O)O

Legend:
Assay in all cases: growth of human tumour cells (NCI), 48 h
786-0 = tested on: 786-0
A498 = tested on: A498
M14 = tested on: M14
MDA-MB-231 = tested on: MDA-MB-231
MDA-MB-435 = tested on: MDA-MB-435
MDA-N = tested on: MDA-N
NCI-H460 = tested on: NCI-H460
NCI-H522 = tested on: NCI-H522
NCI/ADR-RES = tested on: NCI/ADR-RES
OVCAR-3 = tested on: OVCAR-3
OVCAR-5 = tested on: OVCAR-5
SF-268 = tested on: SF-268
SF-295 = tested on: SF-295
SF-539 = tested on: SF-539
SK-OV-3 = tested on: SK-OV-3
SN12C = tested on: SN12C
SNB-19 = tested on: SNB-19
T47D = tested on: T47D
U-251 = tested on: U-251
UACC-257 = tested on: UACC-257

SMILES	GI50 (786-0)	GI50 (A498)	GI50 (M14)	GI50 (MDA-MB-231)	GI50 (MDA-MB-435)	GI50 (MDA-N)	GI50 (NCI-H460)	GI50 (NCI-H522)	GI50 (NCI/ADR-RES)	GI50 (OVCAR-3)	GI50 (OVCAR-5)	GI50 (SF-268)	GI50 (SF-295)	GI50 (SF-539)	GI50 (SK-OV-3)	GI50 (SN12C)	GI50 (SNB-19)	GI50 (T47D)	GI50 (U-251)	GI50 (UACC-257)
CSc1nc2cc(S(=O)(=O)N3CCCCC3)ccc2s1	> 100 µM (inactive)	> 100 µM (inactive)	> 100 µM (inactive)	> 100 µM (inactive)	> 100 µM (inactive)	> 100 µM (inactive)	> 100 µM (inactive)	79.1 µM (inactive)	> 100 µM (inactive)	> 100 µM (inactive)	> 100 µM (inactive)	> 100 µM (inactive)	28 µM (inactive)	> 100 µM (inactive)	> 100 µM (inactive)	> 100 µM (inactive)	> 100 µM (inactive)	> 100 µM (inactive)	> 100 µM (inactive)	48.3 µM (inactive)
Clc1ccccc1C(Nc1ncccn1)Nc1ncccn1	> 100 µM (inactive)	> 100 µM (inactive)	> 100 µM (inactive)	> 100 µM (inactive)	76.6 µM (inactive)	> 100 µM (inactive)	> 100 µM (inactive)	> 100 µM (inactive)	> 100 µM (inactive)	> 100 µM (inactive)	> 100 µM (inactive)	> 100 µM (inactive)	> 100 µM (inactive)	> 100 µM (inactive)	> 100 µM (inactive)	> 100 µM (inactive)	> 100 µM (inactive)	> 100 µM (inactive)	> 100 µM (inactive)	> 100 µM (inactive)
O=[N+]([O-])c1cc(C2ON=C(c3ccccc3)N2C23CC4CC(CC(C4)C2)C3)ccc1Cl (stereo not given)	> 100 µM (inactive)	> 100 µM (inactive)	> 100 µM (inactive)	> 100 µM (inactive)	> 100 µM (inactive)	> 100 µM (inactive)	> 100 µM (inactive)	> 100 µM (inactive)	> 100 µM (inactive)	> 100 µM (inactive)	> 100 µM (inactive)	> 100 µM (inactive)	> 100 µM (inactive)	> 100 µM (inactive)	> 100 µM (inactive)	> 100 µM (inactive)	> 100 µM (inactive)	> 100 µM (inactive)	> 100 µM (inactive)	> 100 µM (inactive)
CCC(=O)CC(O)CC(C)CC(NC(=O)C1CC(C)CN1C(=O)/C=C/C(C)CC)C(=O)NC(C(=O)NC(C)(C)C(=O)NC(CC(C)C)C(=O)NC(CC(C)C)C(=O)NC(C)(C)C(=O)NC(C)(C)C(=O)NCCC(=O)NC(C)CN(C)C)C(O)C(C)C (stereo not given) (X42-[ξPro(4ξ-Me)][X43][ξLeu(3ξ-OH)][Aib]LL[Aib][Aib][βAla]-X44; configuration not given here)	1.52 µM (inactive)	0.495 µM (active)	0.615 µM (active)	0.133 µM (active)	0.0745 µM (active)	0.0818 µM (active)	0.0374 µM (active)	< 0.005 µM (active)	7.08 µM (inactive)	0.0074 µM (active)	0.313 µM (active)	0.0526 µM (active)	0.0255 µM (active)	0.292 µM (active)	0.341 µM (active)	0.261 µM (active)	0.0115 µM (active)	< 0.005 µM (active)	< 0.005 µM (active)	< 0.005 µM (active)
CC1CC(C(=O)OC2OC(COC3OC(CO)C(OC4OC(C)C(O)C(O)C4O)C(O)C3O)C(O)C(O)C2O)C2CCC3(C)C(=CCC4(C)C3CCC3C(C)(CO)C(O)C(O)CC34C)C2C1C (stereo not given)	21 µM (inactive)	> 10 µM (inactive)	35.7 µM (inactive)	17.9 µM (inactive)	18.6 µM (inactive)	19.5 µM (inactive)	20.7 µM (inactive)	13.7 µM (inactive)	> 100 µM (inactive)	23.3 µM (inactive)	26.7 µM (inactive)	19 µM (inactive)	28.8 µM (inactive)	18.4 µM (inactive)	49.1 µM (inactive)	20.7 µM (inactive)	17.4 µM (inactive)	18.4 µM (inactive)	17.5 µM (inactive)	> 10 µM (inactive)
Cc1nc(Nc2ccc(Cl)cc2Cl)sc1C(=O)Nc1ccccc1	53.6 µM (inactive)	> 100 µM (inactive)	80.9 µM (inactive)	56.5 µM (inactive)	42.2 µM (inactive)	81.3 µM (inactive)	37.9 µM (inactive)	38.5 µM (inactive)	96.6 µM (inactive)	97.1 µM (inactive)	> 100 µM (inactive)	77.6 µM (inactive)	29.9 µM (inactive)	> 100 µM (inactive)	> 100 µM (inactive)	> 100 µM (inactive)	> 100 µM (inactive)	22.4 µM (inactive)	25.9 µM (inactive)	61.4 µM (inactive)
CC1=NNC(=O)C1C1CC(c2c[nH]c3ccccc23)=NNC1=S (stereo not given)	> 100 µM (inactive)	> 100 µM (inactive)	> 100 µM (inactive)	> 100 µM (inactive)	94.4 µM (inactive)	> 100 µM (inactive)	68.5 µM (inactive)	> 100 µM (inactive)	> 100 µM (inactive)	> 100 µM (inactive)	> 100 µM (inactive)	> 100 µM (inactive)	> 100 µM (inactive)	> 100 µM (inactive)	> 100 µM (inactive)	> 100 µM (inactive)	> 100 µM (inactive)	82.2 µM (inactive)	> 100 µM (inactive)	> 100 µM (inactive)
O=C1/C(=C/c2ccccc2)CCc2ccc([N+](=O)[O-])cc21	28.4 µM (inactive)	> 78.7 µM (inactive)	48.2 µM (inactive)	69.3 µM (inactive)	40.8 µM (inactive)	35 µM (inactive)	> 100 µM (inactive)	3.31 µM (inactive)	43.6 µM (inactive)	> 100 µM (inactive)	> 100 µM (inactive)	30.7 µM (inactive)	33 µM (inactive)	64.3 µM (inactive)	41 µM (inactive)	> 75.9 µM (inactive)	27.2 µM (inactive)	> 51.6 µM (inactive)	27.1 µM (inactive)	39.5 µM (inactive)
S=C(Nc1ccc2cn[nH]c2c1)Nc1ccc2cn[nH]c2c1	98.2 µM (inactive)	46 µM (inactive)	> 100 µM (inactive)	> 100 µM (inactive)	58.9 µM (inactive)	57.4 µM (inactive)	43 µM (inactive)	34.1 µM (inactive)	> 100 µM (inactive)	> 100 µM (inactive)	95.5 µM (inactive)	> 100 µM (inactive)	87.3 µM (inactive)	> 100 µM (inactive)	> 100 µM (inactive)	> 100 µM (inactive)	> 100 µM (inactive)	33.5 µM (inactive)	57.4 µM (inactive)	96.6 µM (inactive)
OCc1ccc2c(c1)CC1(Cc3ccc(/C=N/O)cc3C1)C2 (stereo not given)	10.4 µM (inactive)	27.7 µM (inactive)	1.99 µM (inactive)	6.27 µM (inactive)	0.445 µM (active)	0.328 µM (active)	3.3 µM (inactive)	2.08 µM (inactive)	3.32 µM (inactive)	2.74 µM (inactive)	23.7 µM (inactive)	13.7 µM (inactive)	2.43 µM (inactive)	2.72 µM (inactive)	6.05 µM (inactive)	2.61 µM (inactive)	5.35 µM (inactive)	11.3 µM (inactive)	2.86 µM (inactive)	2.19 µM (inactive)
NS(=O)(=O)c1nnc(NC(=O)C23CC4CC(CC(C4)C2)C3)s1	> 100 µM (inactive)	> 100 µM (inactive)	> 100 µM (inactive)	> 100 µM (inactive)	> 100 µM (inactive)	> 100 µM (inactive)	60.1 µM (inactive)	68.2 µM (inactive)	> 100 µM (inactive)	> 100 µM (inactive)	> 100 µM (inactive)	55.7 µM (inactive)	> 100 µM (inactive)	> 100 µM (inactive)	> 100 µM (inactive)	> 100 µM (inactive)	> 100 µM (inactive)	90.4 µM (inactive)	> 100 µM (inactive)	> 100 µM (inactive)
CN(C)CCCNC(=O)c1cc(NC(=O)c2cc(NS(=O)(=O)c3ccc4c(c3)C(=O)c3ccccc3C4=O)cn2C)cn1C	> 100 µM (inactive)	> 100 µM (inactive)	> 100 µM (inactive)	> 100 µM (inactive)	83.8 µM (inactive)	88.5 µM (inactive)	45 µM (inactive)	93.5 µM (inactive)	> 100 µM (inactive)	95.5 µM (inactive)	> 100 µM (inactive)	> 100 µM (inactive)	> 100 µM (inactive)	> 100 µM (inactive)	< 0.01 µM (active)	> 100 µM (inactive)	41.5 µM (inactive)	> 100 µM (inactive)	81.3 µM (inactive)	45.8 µM (inactive)
O=c1cnn(C2OC(CO)C(O)C(F)C2O)c(=O)[nH]1 (stereo not given)	> 100 µM (inactive)	40.8 µM (inactive)	> 100 µM (inactive)	> 100 µM (inactive)	> 100 µM (inactive)	> 100 µM (inactive)	> 100 µM (inactive)	> 100 µM (inactive)	> 100 µM (inactive)	> 100 µM (inactive)	> 100 µM (inactive)	> 100 µM (inactive)	> 100 µM (inactive)	> 100 µM (inactive)	> 100 µM (inactive)	> 100 µM (inactive)	> 100 µM (inactive)	> 100 µM (inactive)	> 100 µM (inactive)	> 100 µM (inactive)
